The source of these data is ChEMBL document CHEMBL1153150, “Synthesis and structure-activity relationship of novel lactam-fused chroman derivatives having dual affinity at the 5-HT(1A) receptor and the serotonin transporter” (Bioorg Med Chem Lett, 2010).

The target of assay [1] is T1, 5-hydroxytryptamine receptor 1A (Homo sapiens, UniProt P08908).
T1 sequence (P08908 whole entry): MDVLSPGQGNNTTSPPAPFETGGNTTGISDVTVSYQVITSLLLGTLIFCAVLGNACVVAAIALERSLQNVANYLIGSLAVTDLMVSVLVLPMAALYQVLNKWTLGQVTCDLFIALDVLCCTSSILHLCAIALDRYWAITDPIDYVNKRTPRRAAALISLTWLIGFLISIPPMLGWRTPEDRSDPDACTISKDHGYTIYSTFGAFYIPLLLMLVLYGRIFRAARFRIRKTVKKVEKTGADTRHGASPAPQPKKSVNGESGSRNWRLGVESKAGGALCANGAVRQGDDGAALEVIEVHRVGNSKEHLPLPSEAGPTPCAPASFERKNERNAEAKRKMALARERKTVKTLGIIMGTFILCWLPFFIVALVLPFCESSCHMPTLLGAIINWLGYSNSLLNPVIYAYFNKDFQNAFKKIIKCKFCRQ
Nature of the assay: Displacement of [3H][…] from human 5HT1A receptor expressed in CHO cells. It counts as cell-based. A general note: Loss of bound radioactivity is the signal in a displacement assay; it reports binding, not function.

The target of assay [2] is Sodium-dependent serotonin transporter (Homo sapiens, UniProt P31645). Nature of the assay: Displacement of labeled paroxetine from 5-HT transporter.
The target in assay [3] is T1, 5-hydroxytryptamine receptor 1A. Nature of the assay: Agonist activity at human 5HT1A receptor expressed in CHO cells assessed as inhibition of forskolin-induced adenylate cyclase activity. It counts as functional, cell-based.
The target of assay [4] is T2, 5-hydroxytryptamine receptor 1A (Homo sapiens) (UniProt P08908).
T2 sequence (whole entry): T1 sequence (P08908 whole entry)
Nature of the assay: Agonist activity at human 5HT1A receptor expressed in CHO cells by [35S]GTPgammaS binding assay. It counts as functional, cell-based.

The structures appear in SMILES notation.

Chain of Sodium-dependent serotonin transporter (P31645 whole entry): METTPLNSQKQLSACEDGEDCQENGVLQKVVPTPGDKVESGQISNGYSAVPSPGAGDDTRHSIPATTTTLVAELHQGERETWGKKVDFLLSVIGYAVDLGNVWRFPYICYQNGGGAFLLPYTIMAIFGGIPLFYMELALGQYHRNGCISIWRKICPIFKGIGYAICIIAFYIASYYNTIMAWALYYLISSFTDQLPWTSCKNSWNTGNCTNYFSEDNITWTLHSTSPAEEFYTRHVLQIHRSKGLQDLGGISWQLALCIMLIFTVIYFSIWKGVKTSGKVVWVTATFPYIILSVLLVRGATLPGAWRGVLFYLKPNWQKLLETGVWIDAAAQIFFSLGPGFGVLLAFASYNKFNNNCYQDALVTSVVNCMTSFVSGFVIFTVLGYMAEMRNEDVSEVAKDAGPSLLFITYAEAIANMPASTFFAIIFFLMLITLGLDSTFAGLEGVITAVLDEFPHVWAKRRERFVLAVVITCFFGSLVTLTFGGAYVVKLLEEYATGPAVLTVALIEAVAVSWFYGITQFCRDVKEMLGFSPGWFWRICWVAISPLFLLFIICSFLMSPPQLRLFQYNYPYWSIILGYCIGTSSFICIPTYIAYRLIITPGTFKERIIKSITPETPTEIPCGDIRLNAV

Take `O=C1NCCc2ccc3c(c21)CC(NCCCc1c[nH]c2ccc(F)cc12)CO3` (racemic): the Ki – broadly, a dissociation constant, usually derived from enzyme kinetics or from competition with a known ligand – stood at 44 nM in assay [1] and 10 nM in assay [2]. Moreover, the concentration for a half-maximal effect (EC50) (usually the concentration giving half of the maximal effect) in assay [3] worked out at 25 nM. In addition, the Emax (commonly the maximal effect, on the per cent scale that the assay sets) in assay [4] stood at 87%.
For `CC(C)N(CCCc1c[nH]c2ccc(F)cc12)C1COc2ccc3c(c2C1)C(=O)NCC3` (racemic), the Ki in assay [1] came to 129 nM; in assay [2] it was 8 nM. For the same compound, in assay [3], the EC50 turned out to be 252 nM. This compound yielded an Emax in assay [4] of 94%.
The compound `O=C1NCc2ccc3c(c21)CC(N(CCCc1c[nH]c2ccc(F)cc12)CC1CC1)CO3` (single isomer, unassigned; (-)) [listing 1 of 2 here] showed an Emax in assay [4] of 0%.
Consider `N#Cc1ccc2[nH]cc(CCCCN(CC3CC3)C3COc4ccc5c(c4C3)C(=O)NC5)c2c1` (racemic) [listing 1 of 2 here], for which the Ki in assay [1] came out at 4 nM; in assay [2], 25 nM. For the same compound, in assay [3], the IC50 (commonly the point on the concentration scale where inhibition reaches its midpoint) was 63 nM.
As for `CCN(CCCc1c[nH]c2ccc(F)cc12)C1COc2c(F)cc3c(c2C1)C(=O)NCC3` (racemic), the Ki in assay [1] was determined as 4 nM; in assay [2], 15 nM. The EC50 in assay [3] stood at 10 nM. This compound also yielded an Emax in assay [4] of 92%.
As to `N#Cc1ccc2[nH]cc(CCCCN(CC3CC3)C3COc4ccc5c(c4C3)C(=O)NC5)c2c1` (single isomer, unassigned; (+)) [listing 1 of 2 here], the Ki was found to be 31 nM in assay [1] and 12 nM in assay [2]. In addition, the EC50 in assay [3] is 19 nM.
Consider `CC(C)CN(CCCc1c[nH]c2ccc(F)cc12)C1COc2ccc3c(c2C1)C(=O)NCC3` (racemic), for which the Ki stood at 927 nM in assay [1] and 184 nM in assay [2].
As to `O=C1NCc2ccc3c(c21)CC(N(CCCc1c[nH]c2ccc(F)cc12)C(=O)c1ccccc1)CO3` (racemic), the Ki amounted to 85 nM in assay [1] and 31 nM in assay [2]. Also, in assay [3], the EC50 was 436 nM. The compound further registered an Emax in assay [4] of 96%.
For `O=C1NCc2ccc3c(c21)CC(N(CCCc1c[nH]c2ccc(F)cc12)CC1CC1)CO3` (single isomer, unassigned; (-)) [listing 2 of 2 here], the Ki in assay [1] worked out at 8 nM; in assay [2] it was 6 nM. Also, the IC50 in assay [3] came to 320 nM.
In the case of `O=C1NCCc2ccc3c(c21)CC(N(CCCc1c[nH]c2ccc(F)cc12)CCC(F)(F)F)CO3` (racemic), the results for the Ki in assay [1] and in assay [2] were 966 nM and 340 nM, respectively.
`O=C1NCc2ccc3c(c21)CC(N(CCCc1c[nH]c2ccc(F)cc12)CC1CC1)CO3` (racemic) [listing 1 of 2 here] showed an Emax in assay [4] of 0%.
In assay [4], `O=C1NCc2ccc3c(c21)CC(N(CCCc1c[nH]c2ccc(F)cc12)CC1CC1)CO3` (stereo in doubt; (+)-46) [listing 1 of 2 here] showed an Emax of 84%.
Turning to `O=C1NCCc2cc(F)c3c(c21)CC(N(CCCc1c[nH]c2ccc(F)cc12)CC1CC1)CO3` (racemic), the figures for the Ki in assay [1] and in assay [2] were 50 nM and 112 nM, respectively. Besides, the EC50 in assay [3] came to 101 nM. This compound also gave an Emax in assay [4] of 62%.
In the case of `CCN(CCCc1c[nH]c2ccc(F)cc12)C1COc2ccc3c(c2C1)C(=O)NC3` (racemic), the Ki in assay [1] was determined as 2 nM; in assay [2], 8 nM. Further, the EC50 in assay [3] is 28 nM. In assay [4], this compound registered an Emax of 78%.
For `O=C1NCc2ccc3c(c21)CC(N(CCCc1c[nH]c2ccc(F)cc12)C1CCC1)CO3` (racemic), the Ki in assay [1] worked out at 101 nM; in assay [2], 63 nM. Besides, in assay [3], the EC50 came out at 350 nM.
As to `O=C1NCCc2ccc3c(c21)CC(N(CCCc1c[nH]c2ccc(F)cc12)CC1CC1)CO3` (racemic), the Ki was found to be 19 nM in assay [1] and 26 nM in assay [2]. In addition, the EC50 in assay [3] is 36 nM. Besides, the Emax in assay [4] was 91%.
As for `CN(CCCc1c[nH]c2ccc(F)cc12)C1COc2ccc3c(c2C1)C(=O)NCC3` (racemic), the figures for the Ki in assay [1] and in assay [2] were 23 nM and 17 nM, respectively. For the same compound, in assay [3], the EC50 worked out at 26 nM. Besides, in assay [4], the Emax is 99%.
As to `CN(CCCc1c[nH]c2ccc(F)cc12)C1COc2ccc3c(c2C1)C(=O)NC3` (racemic), the Ki in assay [1] amounted to 22 nM; in assay [2], 9 nM. The EC50 in assay [3] is 75 nM. Further, the Emax in assay [4] was 80%.
Turning to `N#Cc1ccc2[nH]cc(CCCCN(CC3CC3)C3COc4ccc5c(c4C3)C(=O)NC5)c2c1` (single isomer, unassigned; (-)) [listing 1 of 2 here], the Emax in assay [4] is 0%.
As for `O=C1NCc2ccc3c(c21)CC(N(CCCc1c[nH]c2ccc(F)cc12)CC1CC1)CO3` (stereo in doubt; (+)-46) [listing 2 of 2 here], the values for the Ki in assay [1] and in assay [2] were 3 nM and 5 nM, respectively. For the same compound, the EC50 in assay [3] came out at 24 nM.
Take `O=C1NCCc2ccc3c(c21)CC(N(CCCc1c[nH]c2ccc(F)cc12)C1CCC1)CO3` (racemic): the figures for the Ki in assay [1] and in assay [2] were 95 nM and 28 nM, respectively. Moreover, the EC50 in assay [3] came out at 54 nM. In assay [4], this compound gave an Emax of 77%.
Regarding `O=C1NCc2ccc3c(c21)CC(N(CCCc1c[nH]c2ccc(F)cc12)CC1CC1)CO3` (racemic) [listing 2 of 2 here], the Ki in assay [1] is 6 nM; in assay [2] it was 15 nM. Further, the IC50 in assay [3] came out at 223 nM.
On to `CCCN(CCCc1c[nH]c2ccc(F)cc12)C1COc2ccc3c(c2C1)C(=O)NCC3` (racemic), for which the values for the Ki in assay [1] and in assay [2] were 13 nM and 61 nM, respectively. In addition, the EC50 in assay [3] is 34 nM. The compound also gave an Emax in assay [4] of 100%.
`O=C1NCCc2cc(F)c3c(c21)CC(NCCCc1c[nH]c2ccc(F)cc12)CO3` (racemic): the Ki was 6 nM in assay [1] and 27 nM in assay [2]. In addition, the EC50 in assay [3] was 4 nM. The Emax in assay [4] was determined as 98%.
Take `O=C1NCCc2ccc3c(c21)CC(N(CCCc1c[nH]c2ccc(F)cc12)C(=O)c1ccccc1)CO3` (racemic): the Ki in assay [1] turned out to be 1220 nM; in assay [2] it was 671 nM.
Take `O=C1NCc2ccc3c(c21)CC(NCCCc1c[nH]c2ccc(F)cc12)CO3` (racemic): the Ki was 24 nM in assay [1] and 8 nM in assay [2]. The EC50 in assay [3] was determined as 62 nM. This compound also returned an Emax in assay [4] of 100%.
Take `O=C1NCc2ccc3c(c21)CC(N(CCCc1c[nH]c2ccc(F)cc12)CC1CCCCC1)CO3` (racemic): the Ki in assay [2] stood at 1240 nM. This counts as single-digit micromolar.
The compound `CC(C)CN(CCCc1c[nH]c2ccc(F)cc12)C1COc2ccc3c(c2C1)C(=O)NC3` (racemic) showed a Ki in assay [2] of 617 nM.
For `CCN(CCCc1c[nH]c2ccc(F)cc12)C1COc2ccc3c(c2C1)C(=O)NCC3` (racemic), the figures for the Ki in assay [1] and in assay [2] were 6 nM and 30 nM, respectively. Moreover, the EC50 in assay [3] stood at 9 nM. In assay [4], the Emax was 97%.
With `N#Cc1ccc2[nH]cc(CCCCN(CC3CC3)C3COc4ccc5c(c4C3)C(=O)NC5)c2c1` (racemic) [listing 2 of 2 here], the Emax in assay [4] stood at 0%.
In the case of `N#Cc1ccc2[nH]cc(CCCCN(CC3CC3)C3COc4ccc5c(c4C3)C(=O)NC5)c2c1` (single isomer, unassigned; (+)) [listing 2 of 2 here], in assay [4], the Emax was 100%.
On to `O=C1NCc2ccc3c(c21)CC(N(CCCCc1c[nH]c2ccc(F)cc12)CC1CC1)CO3` (racemic), for which the Ki was found to be 19 nM in assay [1] and 139 nM in assay [2]. The EC50 in assay [3] is 49 nM. The compound further showed an Emax in assay [4] of 87%.
With `N#Cc1ccc2[nH]cc(CCCCN(CC3CC3)C3COc4ccc5c(c4C3)C(=O)NC5)c2c1` (single isomer, unassigned; (-)) [listing 2 of 2 here], the Ki in assay [1] is 10 nM; in assay [2], 17 nM. Moreover, the IC50 in assay [3] was 203 nM.
Take `N#Cc1ccc2[nH]cc(CCCNC3COc4ccc5c(c4C3)C(=O)NC5)c2c1` (racemic): the Ki turned out to be 36 nM in assay [1] and 13 nM in assay [2]. For the same compound, the EC50 in assay [3] amounted to 22 nM. This compound registered an Emax in assay [4] of 91%.
As for `O=C1NCc2ccc3c(c21)CC(NCCCCc1c[nH]c2ccc(F)cc12)CO3` (racemic), the Ki in assay [1] came out at 22 nM; in assay [2], 20 nM. Further, the concentration for a half-maximal effect (EC50) in assay [3] amounted to 284 nM. In addition, in assay [4], the Emax turned out to be 96%.
